Results: patent US10730865B2, “Compounds for modulating aquaporins” (APOGLYX AB, priority 2016, dated 2020)

Biological target: human aquaporin 9 (Homo sapiens (Human), UniProt O43315)
Assay: Calcein quenching fluostar assay (inhibition of human aquaporin 9)
Type: cell-based
Conditions: Human AQP9 cell line; example compounds used as 1 mM stock solutions in DMSO
Method: Calcein Quenching Fluostar Assay
A calcein quenching fluostar assay was performed in order to investigate the biological activity of the newly synthesized examples 1 to 57. This type of assay is disclosed in J. Biol. Chem., 2011, 286, 44319-44325 and Am. J. Physiol. Renal Physiol. (2010), 298, F224-230.
1) Two days prior to commencement of the assay, seed 10,000 cells/well of 96 well black clear bottom plate (Greiner Poly-lysin plate). A 1:1 mix of Dulbecco's Modified Eagle's Medium: Nutrient Mixture F-12 (DMEM: F12) was obtained from Gibco. Tetracycline stock of 5 mg/ml in 96% ethanol is used. Medium: DMEM/F12/10% Donor Bovine Serum, Human AQP9 cell line+1:270,000 tetracyclin, mouse AQP9 cell line+1:2,700,000 tetracycline.
2) Day of assay: Flick/slam off the medium and add 50 μl/well of loading solution: 5 ml DMEM/F12/10% Donor Bovine Serum, 25 μl Calcein AM—from freshly dissolved aliquot in 50 μl DMSO (VWR #734-1434), and 100 μl Probenecid.
3) Incubate the well for 90 minutes at 37° C.
4) Perform one wash with 75 μl wash buffer.
5) Add 75 μl of an example compound prepared in wash buffer per well.
Example compounds are prepared in 500 μl U bottom PP plates (NUNC). 2.7 μl Substance in DMSO are added to row A; 180 μl of wash buffer+1% DMSO are added to rows B—H. 90 μl from row A are transferred and mixed with all other wells (up to row G) to make a 3-fold dilution series.
6) Assay in FLUOstar Optima at 25° C. Settings buffer addition at 135 μl/seconds, add 75 μl/well, record time course for 30 seconds, add sucrose buffer 3.6 seconds into recording.
7) Normalization to initial in Excel.
8) Fit to “exponential decay” function in GraphPad Prism 5.0, then arrange half live shrinking values according to wells and fit dose-response curves.

human aquaporin 9, sequence (O43315 whole entry): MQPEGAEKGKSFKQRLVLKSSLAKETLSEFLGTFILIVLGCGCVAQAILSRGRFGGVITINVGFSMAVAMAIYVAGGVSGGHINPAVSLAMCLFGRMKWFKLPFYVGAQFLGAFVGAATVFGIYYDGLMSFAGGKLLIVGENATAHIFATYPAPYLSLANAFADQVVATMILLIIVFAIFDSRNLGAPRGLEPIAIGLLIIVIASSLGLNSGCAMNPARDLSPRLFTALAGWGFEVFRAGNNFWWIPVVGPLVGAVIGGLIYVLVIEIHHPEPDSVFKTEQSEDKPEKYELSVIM

SMILES	EC50	pEC50 in the inhibition of human aquaporin 9
CCc1nnc(SCC(=O)Nc2nnc(-c3ccc(OC(C)C)cc3)s2)n1CC [Example 34, 2-[(4,5-diethyl-4H-1,2,4-triazol-3-yl)sulfanyl]-N-[5-(4-isopropoxyphenyl)-1,3,4-thiadiazol-2-yl]acetamide]	55 nM	–
CCc1nnc(SCC(=O)Nc2nnc(-c3ccc(OC)cc3)s2)n1-c1ccccc1 [Example 1, 2-[(5-ethyl-4-phenyl-4H-1,2,4-triazol-3-yl)sulfanyl]-N-[5-(4-methoxyphenyl)-1,3,4-thiadiazol-2-yl]acetamide]	173 nM	–
CCc1nnc(SCC(=O)Nc2nnc(-c3ccc(OC)cc3)s2)n1CCOC [Example 46, 2-[(5-ethyl-4-(2-methoxyethyl)-4H-1,2,4-triazol-3-yl)sulfanyl]-N-[5-(4-methoxyphenyl)-1,3,4-thiadiazol-2-yl]acetamide]	112 nM	–
CCn1c(CCOC)nnc1SCC(=O)Nc1nnc(-c2ccc(OC(C)C)cc2)s1 [Example 23, 2-{[4-ethyl-5-(2-methoxyethyl)-4H-1,2,4-triazol-3-yl]sulfanyl}-N-{5-[4-(propan-2-yloxy)phenyl]-1,3,4-thiadiazol-2-yl}acetamide]	39 nM	7.4
CCn1c(Cc2ccccc2)nnc1SCC(=O)Nc1nnc(-c2ccc(OC)cc2)s1 [Example 3, 2-[(5-benzyl-4-ethyl-4H-1,2,4-triazol-3-yl)sulfanyl]-N-[5-(4-methoxyphenyl)-1,3,4-thiadiazol-2-yl]acetamide]	195 nM	6.7
CCc1nnc(SCC(=O)Nc2nnc(-c3ccc(OC)cc3)s2)n1CCCOC [Example 47, 2-{[5-ethyl-4-(3-methoxypropyl)-4H-1,2,4-triazol-3-yl]sulfanyl}-N-[5-(4-methoxyphenyl)-1,3,4-thiadiazol-2-yl]acetamide]	159 nM	–
CCc1nnc(SCC(=O)Nc2nnc(-c3ccc(C(F)(F)F)cc3)s2)n1CC [Example 33, 2-[(4,5-diethyl-4H-1,2,4-triazol-3-yl)sulfanyl]-N-[5-(4-(trifluoromethyl)phenyl)-1,3,4-thiadiazol-2-yl]acetamide]	119 nM	–
CCc1nnc(SCC(=O)Nc2nnc(-c3ccc(OC)cc3)s2)n1CCCO [Example 40, 2-[(5-ethyl-4-(3-hydroxypropyl)-4H-1,2,4-triazol-3-yl)sulfanyl]-N-[5-(4-methoxyphenyl)-1,3,4-thiadiazol-2-yl]acetamide]	168 nM	–
CCc1nnc(SCC(=O)Nc2nnc(-c3ccc(O)cc3)s2)n1CC [Example 21, 2-[(diethyl-4H-1,2,4-triazol-3-yl)sulfanyl]-N-[5-(4-hydroxyphenyl)-1,3,4-thiadiazol-2-yl]acetamide]	224 nM	–
CCn1c(SCC(=O)Nc2nnc(-c3ccc(S(C)(=O)=O)cc3)s2)nnc1C(C)C [Example 6, 2-{[4-ethyl-5-(propan-2-yl)-4H-1,2,4-triazol-3-yl]sulfanyl}-N-[5-(4-methanesulfonylphenyl)-1,3,4-thiadiazol-2-yl]acetamide]	192 nM	6.7
CCc1nnc(SCC(=O)Nc2nnc(-c3ccc(Cl)cc3)s2)n1CC [Example 35, N-[5-(4-chlorophenyl)-1,3,4-thiadiazol-2-yl]-2-[(4,5-diethyl-4H-1,2,4-triazol-3-yl)sulfanyl]acetamide]	54 nM	–
CCn1c(OCC(=O)Nc2nnc(-c3ccc(OC)cc3)s2)nnc1-c1ccc(F)cc1 [Example 4, 2-{[4-ethyl-5-(4-fluorophenyl)-4H-1,2,4-triazol-3-yl]oxy}-N-[5-(4-methoxyphenyl)-1,3,4-thiadiazol-2-yl]acetamide]	175 nM	–
CCc1nnc(SCC(=O)Nc2nnc(-c3ccccc3)s2)n1CC [Example 17, 2-[(diethyl-4H-1,2,4-triazol-3-yl)sulfanyl]-N-(5-phenyl-1,3,4-thiadiazol-2-yl)acetamide]	127 nM	6.9
CCc1nnc(SCC(=O)Nc2nnc(-c3ccc4c(c3)CCO4)s2)n1CC [Example 18, 2-[(diethyl-4H-1,2,4-triazol-3-yl)sulfanyl]-N-[5-(2,3-dihydro-1-benzofuran-5-yl)-1,3,4-thiadiazol-2-yl]acetamide]	124 nM	6.9
CCn1c(C)nnc1SCC(=O)Nc1nnc(-c2ccc(S(C)(=O)=O)cc2)s1 [Example 5, 2-[(4-ethyl-5-methyl-4H-1,2,4-triazol-3-yl)sulfanyl]-N-[5-(4-methanesulfonylphenyl)-1,3,4-thiadiazol-2-yl]acetamide]	455 nM	–
CCc1nnc(SCC(=O)Nc2nnc(-c3ccccn3)s2)n1CC [Example 49, 2-[(4,5-diethyl-4H-1,2,4-triazol-3-yl)sulfanyl]-N-[5-(pyridin-2-yl)-1,3,4-thiadiazol-2-yl]acetamide]	224 nM	–
CCn1c(Cc2cccc(F)c2)nnc1SCC(=O)Nc1nnc(-c2ccc(OC)cc2)s1 [Example 37, 2-[(4-ethyl-5-(3-fluorobenzyl)-4H-1,2,4-triazol-3-yl)sulfanyl]-N-[5-(4-methoxyphenyl)-1,3,4-thiadiazol-2-yl]acetamide]	132 nM	6.9
CCOc1ccc(-c2nnc(NC(=O)CSc3nnc(C(C)C)n3CC)s2)cc1 [Example 27, N-[5-(4-ethoxyphenyl)-1,3,4-thiadiazol-2-yl]-2-{[4-ethyl-5-(propan-2-yl)-4H-1,2,4-triazol-3-yl]sulfanyl}acetamide]	69 nM	–
CCc1nnc(SCC(=O)Nc2nnc(-c3ccc(SC)cc3)s2)n1CC [Example 12]	57 nM	–
CCc1ccc(-c2nnc(NC(=O)CSc3nnc(CC)n3CC)s2)cc1 [Example 14, 2-[(diethyl-4H-1,2,4-triazol-3-yl)sulfanyl]-N-[5-(4-ethylphenyl)-1,3,4-thiadiazol-2-yl]acetamide]	65 nM	7.2
CCn1c(SCC(=O)Nc2nnc(-c3ccc(S(C)(=O)=O)cc3)s2)nnc1C1CCCC1 [Example 45, (2-[(5-cyclopentyl-4-ethyl-4H-1,2,4-triazol-3-yl)sulfanyl]-N-[5-(4-methanesulfonylphenyl)-1,3,4-thiadiazol-2-yl]acetamide)]	40 nM	–
CCCc1ccc(-c2nnc(NC(=O)CSc3nnc(CC)n3CC)s2)cc1 [Example 15, 2-[(diethyl-4H-1,2,4-triazol-3-yl)sulfanyl]-N-[5-(4-propylphenyl)-1,3,4-thiadiazol-2-yl]acetamide]	57 nM	–
CCn1c(CCOC)nnc1SCC(=O)Nc1nnc(-c2ccc(OC)cc2)s1 [Example 44, 2-[(4-ethyl-5-(2-methoxyethyl)-4H-1,2,4-triazol-3-yl)sulfanyl]-N-[5-(4-methoxyphenyl)-1,3,4-thiadiazol-2-yl]acetamide]	457 nM	–
CCc1nnc(SCC(=O)Nc2nnc(-c3ccc(OC)cc3)s2)n1CC [Example 2, 2-[(diethyl-4H-1,2,4-triazol-3-yl)sulfanyl]-N-[5-(4-methoxyphenyl)-1,3,4-thiadiazol-2-yl]acetamide]	59 nM	–
CCc1nnc(SCC(=O)Nc2nnc(-c3ccc(CC(C)C)cc3)s2)n1CC [Example 19, 2-[(diethyl-4H-1,2,4-triazol-3-yl)sulfanyl]-N-{5-[4-(2-methylpropyl)phenyl]-1,3,4-thiadiazol-2-yl}acetamide]	94 nM	–
